USRE38132E1, “Phenylpyrrolidines, phenylimidazolidines,3-phenyl-1,3-oxizolidines and 3-phenyl-1,3-thiazolidines and their use in the treatment of inflammatory disease” (Boehringer Ingelheim Pharmaceuticals, Inc., priority 1997, dated 2003)
Where two headings read alike, the source gives them in different places.

What was measured:
[1] = test system: cell bound fibronectin receptor (VLA4) with fibronectin, SKW3 cells; test: Inhibition of SKW3 cell binding to fibronectin (selectivity counter-assay); type: cell-based, human; conditions: for IC50: read-out: Assay to Detect SKW3 Cells Binding to FIBRONECTIN IC50
Procedure, shortened: (§1)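 Compound-treated, PMA-stimulated human T-cell line SKW3 (50 μg/mL PMA final) allowed to adhere for 2 h at 37° C to wells coated with sICAM-1 at 40 μg/mL or fibronectin at 100 μg/mL. After gentle RPMI wash, 50% inhibition concentration or range reported in μM.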

[2] = target: T1, interaction of ICAM-1 with the Leukointegrin CD18/CD11a (LFA-1) (Homo sapiens, UniProt P05107+P20701); test: Assay to determine inhibition of LFA-1 binding to ICAM-1 (immunopurified LFA-1 on plate-bound sICAM-1, ELISA readout)
T1 construct: endogenous in cells; sICAM-1: made in house, secreted from transfected CHO DUX cells

[3] = test system: human MLR, peripheral blood mononuclear cells; test: Inhibition of the mixed lymphocyte reaction (MLR), tritiated thymidine uptake; type: cell-based; set-up: key: Data are reported as “+” or “−” at a given concentration (in μM); Data are reported as “+” or “−” at a given concentration (in μM)
Procedure: Assay to Determine Inhibition the Mixed Lymphocyte Reaction
As discussed above, ICAM-1 is necessary for effective cellular interactions during an immune response mediated through LFA-1-dependent cell adhesion. When lymphocytes from two unrelated individuals are cultured together, blast transformation and cell proliferation of the lymphocytes are observed. This response is known as a mixed lymphocyte reaction (MLR) and is analogous to the response of lymphocytes to the 10 addition of antigens or mitogens (Immunology: The Science of Self-Nonself Discrimination; Klein, J., Ed.; John Wiley & Sons: NY, 1982, pp 453-458).
This assay protocol is used to determine the effect of a test compound on the human MLR.
Description of Assay Protocol:
Peripheral blood is obtained from normal, healthy donors by venipuncture. The blood is collected in heparinized tubes and diluted 1:1 at room temperature with Puck's G (GIBCO) balanced salt solution (BSS). The blood mixture (20 mL) is layered over 15 mL of a Ficoll/Hypaque density gradient (Pharmacia, density=1.078, room temperature) and centrifuged at 1000·g for 20 minutes. The interface is then collected and washed 3 times in Puck's G. The cells are counted on a hemocytometer and resuspended in RPMI 1640 culture medium (GIBCO) containing 0.5% of gentamicin, 1 mM L-glutamine (GICO) and 5% heat inactivated (56° C., 30 min) human AB sera (Flow Laboratories) (hereafter referred to as RPMI-culture medium).
Stimulator cells (cells that have been treated with irradiation so that they are unable to proliferate) from a separate donor are cultured with the responder cells at the same concentration. Test compound is added to wells at various concentrations. The total volume per culture is 0.2 mL. Controls include compound vehicle alone (DMSO), responder cells alone, and stimulator cells alone. The culture plates are incubated at 37° C. in a 5% CO2-humidified air atmosphere for 5 days.
The wells are pulsed with 0.5 μCi of tritiated thymidine (^3HT) (New England Nuclear) for the last 18 h of culture. In some cases a two-way MLR can be performed. The protocol is the same except that the second donor's cells are not inactivated by irradiation.
The cells are harvested onto glass fiber filters using an automated multiple sample harvester (Skatron, Norway), and rinsed with water and methanol. The filters are oven dried and counted in Aquasol in a Beckman (LS-3801) liquid scintillation counter.
Data are reported as “+” or “−” at a given concentration (in μM).

[4] = test system: LFA-1 dependent aggregation of JY cells; test: JY cell homotypic aggregation assay (PMA-stimulated); type: cell-based, human; conditions: Homo sapiens
Procedure, shortened: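 Homotypic aggregation of EBV-transformed JY cells, stimulated by phorbol myristate acetate ([…]), scored visually over time in compound presence at 2·10^5 cells/well in serum-supplemented RPMI 1640. Result given as μM concentration or range inhibiting binding by 50%.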

[5] = test system: cell bound form of LFA-1 (CD18, CD11a) with ICAM-1, SKW3 cells; test: Inhibition of SKW3 cell binding to ICAM-1 (PMA-stimulated); type: cell-based, human; conditions: Homo sapiens, read-out: Assay to Detect SKW3 Cells Binding to ICAM IC50
Procedure, shortened: as §1

[6] = values marked c: no inhibition observed up to highest dose
[7] = values marked e approximated from incomplete dose-response curve
[8] = SKW3, values marked c: no inhibition observed up to highest dose
[9] = No inh = no inhibition observed up to highest dose, exact quantification not always possible due to intrinsic toxicity
[10] = Homo sapiens, SKW3, values marked c: no inhibition observed up to highest dose

T1 sequence (P20701 26-1170): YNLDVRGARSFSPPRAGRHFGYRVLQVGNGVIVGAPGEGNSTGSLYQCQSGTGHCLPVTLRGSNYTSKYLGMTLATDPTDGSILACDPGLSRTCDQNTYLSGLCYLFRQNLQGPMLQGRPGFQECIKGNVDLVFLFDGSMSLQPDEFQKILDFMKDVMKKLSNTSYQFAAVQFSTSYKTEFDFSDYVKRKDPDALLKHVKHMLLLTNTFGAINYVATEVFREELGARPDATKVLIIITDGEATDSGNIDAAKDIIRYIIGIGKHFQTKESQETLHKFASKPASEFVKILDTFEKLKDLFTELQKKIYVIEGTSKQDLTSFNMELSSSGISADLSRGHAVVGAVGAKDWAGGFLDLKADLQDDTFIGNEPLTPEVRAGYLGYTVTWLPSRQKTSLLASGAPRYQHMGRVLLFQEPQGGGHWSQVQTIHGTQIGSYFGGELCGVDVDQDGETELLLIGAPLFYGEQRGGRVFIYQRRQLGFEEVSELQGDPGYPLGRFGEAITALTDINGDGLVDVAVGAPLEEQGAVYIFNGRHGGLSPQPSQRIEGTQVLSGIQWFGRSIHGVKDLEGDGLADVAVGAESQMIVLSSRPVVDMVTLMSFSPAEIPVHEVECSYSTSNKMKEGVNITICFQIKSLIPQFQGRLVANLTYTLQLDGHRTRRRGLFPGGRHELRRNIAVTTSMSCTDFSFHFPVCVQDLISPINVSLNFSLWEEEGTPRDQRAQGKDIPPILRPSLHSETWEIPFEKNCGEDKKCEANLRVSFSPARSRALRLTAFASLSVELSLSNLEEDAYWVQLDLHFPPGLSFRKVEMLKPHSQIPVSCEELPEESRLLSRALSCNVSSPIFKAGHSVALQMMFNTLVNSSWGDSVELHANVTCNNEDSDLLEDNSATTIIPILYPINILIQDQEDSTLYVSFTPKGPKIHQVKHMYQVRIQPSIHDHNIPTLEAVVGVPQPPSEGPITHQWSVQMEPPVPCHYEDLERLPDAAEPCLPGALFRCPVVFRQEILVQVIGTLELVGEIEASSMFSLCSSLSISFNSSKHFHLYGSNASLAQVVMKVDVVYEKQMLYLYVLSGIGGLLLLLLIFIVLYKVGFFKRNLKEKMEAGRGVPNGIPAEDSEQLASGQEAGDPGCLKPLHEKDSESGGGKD
T1 sequence (P05107 23-769): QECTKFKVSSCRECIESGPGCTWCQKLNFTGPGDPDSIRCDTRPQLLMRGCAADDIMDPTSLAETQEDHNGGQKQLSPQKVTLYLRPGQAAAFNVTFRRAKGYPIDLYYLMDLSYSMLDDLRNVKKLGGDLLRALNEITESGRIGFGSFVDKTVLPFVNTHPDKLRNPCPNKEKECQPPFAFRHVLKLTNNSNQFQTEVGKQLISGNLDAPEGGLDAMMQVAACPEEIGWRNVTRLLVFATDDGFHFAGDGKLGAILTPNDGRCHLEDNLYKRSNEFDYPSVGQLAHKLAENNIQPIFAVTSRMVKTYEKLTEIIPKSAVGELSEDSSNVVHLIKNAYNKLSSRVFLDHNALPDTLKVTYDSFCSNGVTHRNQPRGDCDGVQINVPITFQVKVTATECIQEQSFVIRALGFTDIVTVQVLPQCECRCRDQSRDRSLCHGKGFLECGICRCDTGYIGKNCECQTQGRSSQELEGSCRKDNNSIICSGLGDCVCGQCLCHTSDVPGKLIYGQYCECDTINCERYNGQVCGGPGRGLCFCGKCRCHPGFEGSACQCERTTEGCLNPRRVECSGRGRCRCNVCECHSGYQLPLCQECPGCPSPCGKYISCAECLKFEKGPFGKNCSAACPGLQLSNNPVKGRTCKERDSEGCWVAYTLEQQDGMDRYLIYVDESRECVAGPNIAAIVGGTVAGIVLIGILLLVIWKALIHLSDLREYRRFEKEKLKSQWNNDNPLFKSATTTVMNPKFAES

Structure (SMILES)	Cellular Toxicity Assay MTT LD50 (SKW3 cells) [µM]	IC50 [1, 6] [µM]	Kd [2, 7] [µM]	Mixed Lymphocyte Reaction MLR +/− ([3]; at 50 μM)	IC50 [4] [µM]	IC50 [5, 8] [µM]	Assay to Detect SKW3 Cells Binding to FIBRONECTIN IC50 [1, 9]	Kd [2] [µM]	Mixed Lymphocyte Reaction MLR +/− ([3]; at 25 μM)	IC50 ([5]; SKW3) [µM]	Assay to Detect SKW3 Cells Binding to FIBRONECTIN IC50 [1, 6]	IC50 [1, 10] [µM]
CN1C(=O)N(c2cc(C(F)(F)F)cc(C(F)(F)F)c2)C(=O)C1(C)Cc1ccccc1 (stereo not drawn) [Example 83]	250 to 500	> 200	0.3	+(50)	6	13 to 25	–	–	–	–	–	–
CCCN1C(=O)N(c2cc(Cl)cc(Cl)c2)C(=O)[C@]1(C)Cc1ccc(Br)cc1 [Example 276]	375	–	–	–	0.5	–	No inh^c	1.11	+(25)	10	–	–
C[C@H]1C(=O)N(c2cc(Cl)cc(Cl)c2)C(=O)[C@]1(C)Cc1ccc(Br)cc1 [Example 72]	>363	–	0.06	–	1.4	20 to 40	–	–	+(25)	–	No inh^c	–
C[C@@]1(Cc2ccc(Br)cc2)C(=O)N(c2cc(Cl)cc(Cl)c2)C(=O)N1CCCCCC(=O)O [Example 226]	100	–	–	–	1.6	–	No inh^c	0.07	+(25)	3 to 6	–	–
C[C@@]1(Cc2ccc(Br)cc2)C(=O)N(c2cc(Cl)cc(Cl)c2)C(=O)N1CCCC(=O)O [Example 227]	200 to 400	–	–	+(50)	3.1	–	No inh^c	0.18	–	25	–	–
C[C@@]1(Cc2ccc(Br)cc2)C(=O)N(c2cc(Cl)cc(Cl)c2)C(=O)N1Cc1ccc(C(=N)N)cc1 [Example 242]	16 to 32	–	–	–	2.8	–	No inh^c	0.4	–	10 to 25	–	–
CC(=O)OCCN1C(=O)N(c2cc(Cl)cc(Cl)c2)C(=O)[C@@]1(C)Cc1ccc(Br)cc1 [Example 260]	200 to 400	–	–	–	1.1	–	No inh^c	0.07	–	19 to 38	–	–
CCCC1(Cc2ccccc2)C(=O)N(c2cc(Cl)cc(Cl)c2)C(=O)N1C (stereo not drawn) [Example 94]	200	–	0.74	–	25	50 to 100	–	–	–	–	No inh^c	–
CC(C)N1C(=O)N(c2cc(Cl)cc(Cl)c2)C(=O)C1Cc1ccccc1 (stereo not drawn) [Example 10]	>500	–	0.19	–	6.3	50	–	–	–	–	No inh^c	–
C[C@@]1(Cc2ccc(Br)cc2)C(=O)N(c2cc(Cl)cc(Cl)c2)C(=O)N1Cc1ccncc1 [Example 103]	25 to 50	–	0.1	–	0.13	25	–	–	–	–	–	> 25
C[C@]1(Cc2ccc(-c3cccnc3)cc2)NC(=O)N(c2cc(Cl)cc(Cl)c2)C1=O [Example 190]	50 to 100	–	0.43	–	1.4	6 to 12	–	–	–	–	No inh^c	–
CN1C(=O)N(c2cc(Cl)c(Cl)c(Cl)c2)C(=O)[C@@]1(C)Cc1ccc(Br)cc1 [Example 123]	50 to 100	–	0.1	+(50)	0.6	12 to 25	–	–	–	–	–	> 25
